From the NIST ThermoML archive (doi:10.1016/j.jct.2017.03.006)

Experiment: xn = mol fraction of the nth substance listed
Conditions: Liquid; for mass density: Vibrating tube method; for viscosity: Concentric cylinders viscometry

Cc1ccc(C)c(C)c1 [1,2,4-trimethylbenzene] + CCCCO
Conditions	mass density [kg/m3]	viscosity [mPa·s]
273.15 K, 60000 kPa, x2 = 0.1005	917.1	–
273.15 K, 60000 kPa, x2 = 0.2261	910.9	–
273.15 K, 60000 kPa, x2 = 0.2999	907.2	–
273.15 K, 60000 kPa, x2 = 0.3966	901.8	–
273.15 K, 60000 kPa, x2 = 0.5289	894.1	–
273.15 K, 60000 kPa, x2 = 0.6367	887	–
273.15 K, 60000 kPa, x2 = 0.7249	880.8	–
273.15 K, 60000 kPa, x2 = 0.7977	875.2	–
273.15 K, 60000 kPa, x2 = 0.9131	865.5	–
273.15 K, 70000 kPa, x2 = 0	926.2	–
273.15 K, 70000 kPa, x2 = 0.1005	921.4	–
273.15 K, 70000 kPa, x2 = 0.2261	915.1	–
273.15 K, 70000 kPa, x2 = 0.2999	911.4	–
273.15 K, 70000 kPa, x2 = 0.3966	906.1	–
273.15 K, 70000 kPa, x2 = 0.5289	898.5	–
273.15 K, 70000 kPa, x2 = 0.6367	891.4	–
273.15 K, 70000 kPa, x2 = 0.7249	885.2	–
273.15 K, 70000 kPa, x2 = 0.7977	879.7	–
273.15 K, 70000 kPa, x2 = 0.9131	870.1	–
273.15 K, 80000 kPa, x2 = 0	930.3	–
273.15 K, 80000 kPa, x2 = 0.1005	925.5	–
273.15 K, 80000 kPa, x2 = 0.2261	919.3	–
273.15 K, 80000 kPa, x2 = 0.2999	915.6	–
273.15 K, 80000 kPa, x2 = 0.3966	910.3	–
273.15 K, 80000 kPa, x2 = 0.5289	902.7	–
273.15 K, 80000 kPa, x2 = 0.6367	895.7	–
273.15 K, 80000 kPa, x2 = 0.7249	889.5	–
273.15 K, 80000 kPa, x2 = 0.7977	883.9	–
273.15 K, 80000 kPa, x2 = 0.9131	874.3	–
273.15 K, 90000 kPa, x2 = 0	934.2	–
273.15 K, 90000 kPa, x2 = 0.1005	929.4	–
273.15 K, 90000 kPa, x2 = 0.2261	923.2	–
273.15 K, 90000 kPa, x2 = 0.2999	919.6	–
273.15 K, 90000 kPa, x2 = 0.3966	914.3	–
273.15 K, 90000 kPa, x2 = 0.5289	906.7	–
273.15 K, 90000 kPa, x2 = 0.6367	899.7	–
273.15 K, 90000 kPa, x2 = 0.7249	893.6	–
273.15 K, 90000 kPa, x2 = 0.7977	888	–
273.15 K, 90000 kPa, x2 = 0.9131	878.4	–
273.15 K, 100000 kPa, x2 = 0	938	–
273.15 K, 100000 kPa, x2 = 0.1005	933.3	–
273.15 K, 100000 kPa, x2 = 0.2261	927.1	–
273.15 K, 100000 kPa, x2 = 0.2999	923.4	–
273.15 K, 100000 kPa, x2 = 0.3966	918.2	–
273.15 K, 100000 kPa, x2 = 0.5289	910.6	–
273.15 K, 100000 kPa, x2 = 0.6367	903.6	–
273.15 K, 100000 kPa, x2 = 0.7249	897.5	–
273.15 K, 100000 kPa, x2 = 0.7977	891.9	–
273.15 K, 100000 kPa, x2 = 0.9131	882.3	–
273.15 K, 120000 kPa, x2 = 0	945.2	–
273.15 K, 120000 kPa, x2 = 0.1005	940.6	–
273.15 K, 120000 kPa, x2 = 0.2261	934.5	–
273.15 K, 120000 kPa, x2 = 0.2999	930.8	–
273.15 K, 120000 kPa, x2 = 0.3966	925.6	–
273.15 K, 120000 kPa, x2 = 0.5289	918	–
273.15 K, 120000 kPa, x2 = 0.6367	911.1	–
273.15 K, 120000 kPa, x2 = 0.7249	905	–
273.15 K, 120000 kPa, x2 = 0.7977	899.4	–
273.15 K, 120000 kPa, x2 = 0.9131	889.9	–
273.15 K, 140000 kPa, x2 = 0	952	–
273.15 K, 140000 kPa, x2 = 0.1005	947.3	–
273.15 K, 140000 kPa, x2 = 0.2261	941.3	–
273.15 K, 140000 kPa, x2 = 0.2999	937.7	–
273.15 K, 140000 kPa, x2 = 0.3966	932.5	–
273.15 K, 140000 kPa, x2 = 0.5289	924.9	–
273.15 K, 140000 kPa, x2 = 0.6367	918	–
273.15 K, 140000 kPa, x2 = 0.7249	911.9	–
273.15 K, 140000 kPa, x2 = 0.7977	906.4	–
273.15 K, 140000 kPa, x2 = 0.9131	896.8	–
293.15 K, 100 kPa, x2 = 0	875.1	0.888
293.15 K, 100 kPa, x2 = 0.1002	–	0.898
293.15 K, 100 kPa, x2 = 0.1005	870.2	–
293.15 K, 100 kPa, x2 = 0.2261	863.7	–
293.15 K, 100 kPa, x2 = 0.2327	–	0.949
293.15 K, 100 kPa, x2 = 0.3	–	1.001
293.15 K, 100 kPa, x2 = 0.3969	–	1.087
293.15 K, 100 kPa, x2 = 0.637	–	1.483
293.15 K, 100 kPa, x2 = 0.7975	–	1.975
293.15 K, 100 kPa, x2 = 0.9131	–	2.464
